In patent US7074575B2, “Use of interleukin-19 to treat ovarian cancer” (ZymoGenetics, Inc., priority 2002, dated 2006) one finds inhibition of growth data, which are given here for 2 molecules.

A word on the inhibition of growth: it is the share of the control response that was lost under treatment.

The subject of this experiment is Ovcar3 (ATCC #HTB-161) cells. The experiment can be described thus: Ovcar3 cytotoxicity assay (MTT readout). Format: cell-based. The settings on record: 72 hours. How it is done: We tested IL-19 in an Ovcar3 (ATCC #HTB-161) cytoxicity assay to measure the ability of IL-19 to prevent cells from growing during normal growth conditions. We used MTT reagent (Promega, Madison, USA) as our detection and readout for this cell inhibition assay. Procedure of a cytoxicity assay: Ovcar3 Cytotoxicity Assay
Ovcar3 (ATCC #HTB-161) cells were plated at a density of 5000 cells/100 ul/well in clear 96 well TC plates. Cells were plated in complete growth media consisting of RPMI containing 20% FBS, 0.01 mg/ml insulin, 2% HEPES, 1% Sodium Pyruvate and 1% Glutamax. Cells were incubated overnight at 37° C. in a 5% CO2 incubator.
The following day, media was removed from the cells and replaced with 100 ul/well of appropriately diluted samples. All sample dilutions were done in complete growth media. Samples were incubated on the cells for 72 hours.
After incubation, an MTT assay was done on the cells using the manufacturer's protocol (Promega #PAG4100). Dye solution was incubated on the cells 4 hours, followed by a 1 hour incubation with the stop solution. Absorbance was then read on the Victor II and percent inhibition was calculated from the wells containing complete growth media only.

As to `CC1=C(/C=C/C(C)=C/C=C/C(C)=C/C(=O)O)C(C)(C)CCC1` [Retnoic Acid], the inhibition of growth was 29% (3 uM), 34% (10 uM), 43% (31 uM) and 83% (100 uM).

B1: IL-19: interleukin-19 polypeptide, amino acid sequence SEQ ID NO:2; mature secreted form amino acid 23 (His) to 177 (Ala) (protein, listed as Homo sapiens)
chain: MKLQCVSLWLLGTILILCSVDNHGLRRCLISTDMHHIEESFQEIKRAIQAKDTFPNVTILSTLETLQIIKPLDVCCVTKNLLAFYVDRVFKDHQEPNPKILRKISSIANSFLYMQKTLRQCQEQRQCHCRQEATNATRVIHDNYDQLEVHAAAIKSLGELDVFLAWINKNHEVMSSA
With B1, the inhibition of growth by setting is: (1 ng/ml) 4%; (10 ng/ml) 9%; (100 ng/ml) 23%; (1000 ng/ml) 52%.
